“Also recorded” adds a separate entry of the source. Blank lines part the entries; values can stand above or below the compound they belong to.
Assays:
Assay type in all cases: in vivo
[1] = target: T1, DPP4 (Rattus norvegicus, UniProt P14740); assay: Peptide display (RP chromatography + MALDI-MS) of rat plasma: Spearman correlation of peptide/protein signals with inhibitor concentration or before/after change in DPP4 activity; set-up: key to Correlation of mass spectrometric signal with concentration of inhibitor AB & Contr.In. A / Correlation of mass spectrometric signal with concentration of inhibitor Contr.In. C: With positive (pos.) correlation regarding the inhibitor concentration is meant that higher concentrations of inhibitor result in higher concentration of a peptide or protein
T1 construct: from tissue; host or cells: Wistar rats dosed in vivo; activity read in tail-vein plasma
T1 sequence (P14740 whole entry): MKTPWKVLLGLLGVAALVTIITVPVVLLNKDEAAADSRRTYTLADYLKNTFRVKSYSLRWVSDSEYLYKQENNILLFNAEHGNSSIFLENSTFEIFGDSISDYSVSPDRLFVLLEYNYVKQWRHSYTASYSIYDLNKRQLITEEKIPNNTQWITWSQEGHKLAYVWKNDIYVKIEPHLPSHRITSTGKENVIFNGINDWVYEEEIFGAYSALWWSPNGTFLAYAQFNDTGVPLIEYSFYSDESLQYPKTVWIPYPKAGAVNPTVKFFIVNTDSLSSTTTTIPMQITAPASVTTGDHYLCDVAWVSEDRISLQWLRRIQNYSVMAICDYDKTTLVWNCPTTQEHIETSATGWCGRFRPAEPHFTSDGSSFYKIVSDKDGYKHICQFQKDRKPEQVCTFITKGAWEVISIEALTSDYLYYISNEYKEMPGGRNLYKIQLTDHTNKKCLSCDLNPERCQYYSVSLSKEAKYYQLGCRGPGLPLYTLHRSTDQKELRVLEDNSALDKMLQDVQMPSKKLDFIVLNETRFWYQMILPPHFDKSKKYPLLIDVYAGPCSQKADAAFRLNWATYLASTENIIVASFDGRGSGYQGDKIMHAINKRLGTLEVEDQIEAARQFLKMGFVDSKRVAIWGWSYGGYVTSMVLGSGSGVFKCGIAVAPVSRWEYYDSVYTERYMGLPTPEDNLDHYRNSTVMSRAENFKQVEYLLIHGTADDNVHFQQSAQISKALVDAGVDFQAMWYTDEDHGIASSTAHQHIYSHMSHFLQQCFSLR
Description: The DPP4 inhibitor AB192 (bis(4-acetamidophenyl)-1-(S)-prolylpyrrolidine-2-(R,S)-phosphonate) (J. Med. Chem., 1999, 42:1041-52) was kindly provided by Ingrid De Meester (University of Antwerp, Campus Drie Eiken, Department of Pharmaceutical Sciences, Universiteitsplein 1, B-2610 Wilrijk-Antwerpen). AB192, an irreversible inhibitor of DPP4, was used at 0.32, 1.00 and 3.2 mg/kg body weight. The control inhibitor (Contr.In.) was used at 0.3, 1.0 and 3.0 mg/kg body weight. Eight week old Wistar rats (315-320 g body weight) received either of the inhibitors (8 animals for each inhibitor concentration of each inhibitor) or were treated with vehicle (50 mM sodium phosphate buffer; pH 7.4) (4 animals). The rats received the inhibitors or vehicle by subcutaneous injection into the fat tissue of the neck using a 27-G needle. Blood samples (100 μl) for DPP4 activity measurements were drawn from the tail vein before injection and at the end of the experiment 1 h after injection of the DPP4 inhibitors. At this point, the rats were anaesthetised using a mixture of ketamin (9 mg/100 g body weight) and rompun (0.2 mg/100 g body weight). Additionally, rats received a short burst of ether for quick anaesthesia. The thorax was opened immediately and 4 to 6 ml of blood taken from the right ventricle into ethylenediaminetetraacetic acid (EDTA) laminated syringes and transferred into a 15 ml tube filled with EDTA at a final concentration of 2.5 mg/ml.
Rat blood samples were consecutively centrifuged at room temperature for 10 min at 2000×g and for 15 min at 2500×g. The resulting platelet poor plasma was stored at −80° C. until analysis. For reduction of the protein load of the plasma, the plasma sample was diluted 1:4 with 8 M guanidinium chloride solution at room temperature and for quality control purposes a peptide standard mix was added resulting in a final concentration of 300 to 800 pM of each individual standard peptide added. The peptides added were: substance P, somatostatin-14, neurotensin, renin substrate (porcine), adrenocorticotropic hormone (ACTH)(1-17), big endothelin-1(19-38), ACTH(18-39), beta-Endorphin(6-31), adrenocorticotropic hormone(1-24), calcitonin (human), insulin B chain oxide (bovine), ACTH(7-38), pro34-neuropeptide Y (porcine) and growth hormone-releasing factor (GRF)(1-44). All Peptides or proteins represent the human sequence, if not indicated to the contrary and the numbers in brackets following some of the peptides indicate the amino acid positions of the complete sequence including said peptide. Prior to use, the ultrafiltration devices are rinsed with distilled water. Ultrafiltration was done using Amicon Ultra filter devices with a molecular weight cut-off of 50 kDa (Millipore, Bedford, USA), which were centrifuged according to the manufacturer's instructions at 4000×g for 60 min at room temperature in a swinging bucket rotor. Finally, the pH of the filtrate was adjusted to pH 2 to 3 using concentrated HCl (30% v/v). If the sample (filtrate) was not directly further processed, it was stored at −80° C. A 750 μl-equivalent of plasma was used per chromatographic run.
The separation of peptides and/or proteins was done using a Source 5RPC, 4,6×150 mm reverse phase chromatography column (Amersham Biosciences Europe GmbH, Freiburg, Germany). Buffer A was 0.06% (v/v) (volume per volume) trifluoroacetic acid (TFA) in distilled water and buffer B was 0.05% (v/v) TFA, 80% (v/v) acetonitrile in distilled water. The chromatography took place at 33° C. using a HP 1100 HPLC with a micro flow cell both supplied by Agilent Technologies, Böblingen, Germany. The samples were diluted to 5.5 ml using a 0.1% (v/v) stock solution of trifluoroacetic acid. Prior to chromatography, the samples were centrifuged at 4° C. and 15 000×g for 10 minutes and finally 5 ml of sample were loaded onto the chromatography column representing an equivalent of 750 μl plasma. […]

[2] = target: T1, DPP4; assay: Panels of pairs of peptides/proteins (linear model): correlation to inhibitor concentration or to decreased DPP4 activity; conditions: for Correlation coefficient of Panel 1 + 2: panel of both peptides/proteins; for Correlation coefficient of Pep./Prot. 1: single peptide/protein 1 of the panel; for Correlation coefficient of Pep./Prot. 2: single peptide/protein 2 of the panel
Description: In addition, networks of peptides and/or proteins were calculated. This allows, for example, to identify panels of peptides and/or proteins, which enable to better reflect the biological impact of the inhibitors (FIG. 5/Table 2). Combining two peptides and/or proteins in these panels increased the reliability of the prediction (e.g. concentration of inhibitor, “before/after change in DPP4 activity”) possible by evaluating these peptide/protein panels. These panels were determined by comprehensively combining peptide and/or protein signals to pairs of peptide and/or protein signals. In a “linear model”, the signal intensities of the peptide and/or protein pairs were treated as independent variables, and the endpoint DPP4 concentration (or change in DPP4 activity) was treated as the dependent variable. The “linear model” was then calculated (e.g. with R-package, version 2.00 (R Foundation for Statistical Computing, Vienna, Austria) or S-plus, version 6.0 (Insightful AG, Reinach, Switzerland), etc.).
In addition to panels of peptides and/or proteins, surrogate networks of peptides and/or proteins can also be predicted, which peptides and/or proteins can replace each other, i.e. the peptides and/or proteins are surrogates of each other. Using this method it is, for example, possible to identify peptides and/or proteins which have the same diagnostic value. […] In addition, it is possible to choose those peptides and/or proteins of a surrogate network, which can be measured with the least effort. Both strategies can be combined to save time, resources, valuable or limited patient samples, etc. For determining these surrogate networks and peptide and/or protein panels, methods such as the methods described in PCT/EP 2005/000090 can be used.

[3] = target: T1, DPP4; assay: DPP4 activity in plasma of rats injected with DPP4 inhibitors (G-P-4 nitroanilide substrate, 405 nm); conditions: Wistar rats, s.c., 0.3-3.2 mg/kg, 1 h after injection; FIG. 2
Description: The DPP4 inhibitor AB192 (bis(4-acetamidophenyl)-1-(S)-prolylpyrrolidine-2-(R,S)-phosphonate) (J. Med. Chem., 1999, 42:1041-52) was kindly provided by Ingrid De Meester (University of Antwerp, Campus Drie Eiken, Department of Pharmaceutical Sciences, Universiteitsplein 1, B-2610 Wilrijk-Antwerpen). AB192, an irreversible inhibitor of DPP4, was used at 0.32, 1.00 and 3.2 mg/kg body weight. The control inhibitor (Contr.In.) was used at 0.3, 1.0 and 3.0 mg/kg body weight. Eight week old Wistar rats (315-320 g body weight) received either of the inhibitors (8 animals for each inhibitor concentration of each inhibitor) or were treated with vehicle (50 mM sodium phosphate buffer; pH 7.4) (4 animals). The rats received the inhibitors or vehicle by subcutaneous injection into the fat tissue of the neck using a 27-G needle. […]
Blood samples taken from the tail vein were immediately centrifuged (2000×g; 10 min at room temperature) and plasma stored at −20° C. […] The 96-well plate was read immediately using a Tecan Genios microplate reader (Tecan Deutschland GmbH, Crailsheim, Germany) and measurements were taken at 37° C. over a period of time of 1 h at a wavelength of 405 nm. From the measured values the blank signal (plasma+HEPES buffer) was subtracted and data calculated as Units/litre (U/l). […]

[4] = with DPP4 activity in presence of AB (AB192 inhibitor)
[5] = with concentration of AB (AB192 inhibitor)
[6] = with concentration of AB and Contr.In.

Correlation of mass spectrometric signal with DPP4 inhibition by Contr.In. F ([1]; Spearman, before/after change in DPP4 activity with control inhibitor, but not AB192, n=31, |r|>0.61, rat plasma): neg.
correlation of mass spectrometric signal with the DPP4 activity measured in the same samples ([1]; plasma of rats treated with control inhibitor (Contr.In.), FIG. 3A, 4B): negatively
Correlation coefficient of Panel 1 + 2 [2, 4]: 0.54
Correlation coefficient of Pep./Prot. 1 [2, 4]: −0.38
Correlation coefficient of Pep./Prot. 2 [2, 4]: −0.4
Compound: GAPGQNGEPGAKGERGAPGEKGEGGPPG [Peptide/Protein No. 45]

Correlation of mass spectrometric signal with concentration of inhibitor Contr.In. C ([1]; Spearman, concentration of control inhibitor, but not of AB192, n=27, |r|>0.61, rat plasma): pos.
correlation of mass spectrometric signal with the amount of control inhibitor (Contr.In.) given to the rat ([1]; rat plasma, FIG. 4A): positively
Correlation coefficient of Panel 1 + 2 [2, 5]: 0.66
Correlation coefficient of Pep./Prot. 1 [2, 5]: −0.44
Correlation coefficient of Pep./Prot. 2 [2, 5]: 0.48
Compound: PPGPPGPPGPPGPPS [Peptide/Protein No. 3]

Compound: CC(=O)Nc1ccc(OP(=O)(Oc2ccc(NC(C)=O)cc2)C2CCCN2C(=O)[C@@H]2CCCN2)cc1 (stereo partly drawn) [AB192, bis(4-acetamidophenyl)-1-(S)-prolylpyrrolidine-2-(R,S)-phosphonate]
DPP4 activity in plasma [3]: inhibited the activity of DPP4 in vivo in rats in a dose dependent manner; also recorded: inhibit DPP4 activity in vivo in a dose-dependent manner

Correlation of mass spectrometric signal with concentration of inhibitor AB & Contr.In. A ([1]; Spearman, correlates with concentration of AB192 and of control inhibitor, n=49, |r|>0.5, rat plasma 1 h after s.c. injection): pos.
correlation of mass spectrometric signal with the amount of the DPP4 inhibitor AB192 or the control inhibitor given to the rat ([1]; rat plasma, FIG. 3B): positively
Correlation coefficient of Panel 1 + 2 [2, 6]: 0.59
Correlation coefficient of Pep./Prot. 1 [2, 6]: −0.52
Correlation coefficient of Pep./Prot. 2 [2, 6]: −0.52
Compound: LPGPPGERGGPGSRGFPGADGVAGP [Peptide/Protein No. 2]

— patent US20070037143A1, “Method for screening for protease modulators” (DIGILAB BioVisioN GmbH, priority 2005, published 2007)
